Assay results as given in patent US8148373B2, “Compounds” (AstraZeneca AB, priority 2008, dated 2012).
Structures can show the parent of a compound that is named as a salt.

Tests used:
[1] = biological target: T1, Adrenergic β2 (H292 cells) (Homo sapiens, UniProt P07550); assay: Assay for Adrenergic β2 Mediated cAMP Production (concentration response, AlphaScreen cAMP detection); assay type: cell-based; settings: for EC50: cAMP production, 60 minutes at room temperature, 300 μM rolipram, read-out: β2 pEC50 (converted); for β2 Intrinsic activity: fraction relative to the maximum activity determined for formoterol
T1 construct: endogenous in cells; host or cells: H292 cells
T1 sequence (P07550 whole entry): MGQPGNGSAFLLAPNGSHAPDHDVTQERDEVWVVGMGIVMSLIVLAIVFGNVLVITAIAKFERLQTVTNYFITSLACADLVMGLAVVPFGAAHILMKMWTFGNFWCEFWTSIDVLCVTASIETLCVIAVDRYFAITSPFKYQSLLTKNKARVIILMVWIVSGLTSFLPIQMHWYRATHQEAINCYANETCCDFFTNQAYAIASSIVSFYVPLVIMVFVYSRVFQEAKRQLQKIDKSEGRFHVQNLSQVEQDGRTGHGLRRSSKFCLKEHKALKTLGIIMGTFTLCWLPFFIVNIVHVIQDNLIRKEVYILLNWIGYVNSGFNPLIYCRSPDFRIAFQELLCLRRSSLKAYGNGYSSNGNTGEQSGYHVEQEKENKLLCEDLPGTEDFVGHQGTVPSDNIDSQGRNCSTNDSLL
Description: Assay for Adrenergic β2 Mediated Camp Production
H292 cells are grown in 225 cm2 flasks incubator at 37° C., 5% CO2 in RPMI medium containing 10% (v/v) FBS (foetal bovine serum) and 2 mM L-glutamine.
Adherent H292 cells are removed from tissue culture flasks by treatment with Accutase™ cell detachment solution for 15 minutes. Flasks are incubated for 15 minutes in a humidified incubator at 37° C., 5% CO2. Detached cells are re-suspended in RPMI media (containing 10% (v/v) FBS and 2 mM L-glutamine) at 0.1×10^6 cells per mL. 10000 cells in 100 μL are added to each well of a tissue-culture-treated 96-well plate and the cells incubated overnight in a humidified incubator at 37° C., 5% CO2. The culture media is removed and cells are washed twice with 100 μL assay buffer and replaced with 50 μL assay buffer (HBSS solution containing 10 mM HEPES pH7.4 and 5 mM glucose). Cells are rested at room temperature for 20 minutes after which time 25 μL of rolipram (1.2 mM made up in assay buffer containing 2.4% (v/v) dimethylsulphoxide) is added. Cells are incubated with rolipram for 10 minutes after which time test compounds are added and the cells are incubated for 60 minutes at room temperature. The final rolipram concentration in the assay is 300 μM and final vehicle concentration is 1% (v/v) dimethylsulphoxide. The reaction is stopped by removing supernatants, washing once with 100 μL assay buffer and replacing with 50 μL lysis buffer. The cell monolayer is frozen at −80° C. for 30 minutes (or overnight).
AlphaScreen™ cAMP Detection
The concentration of cAMP (cyclic adenosine monophosphate) in the cell lysate is determined using AlphaScreen™ methodology. The frozen cell plate is thawed for 20 minutes on a plate shaker then 10 μL of the cell lysate is transferred to a 96-well white plate. 40 μL of mixed AlphaScreen™ detection beads pre-incubated with biotinylated cAMP, is added to each well and the plate incubated at room temperature for 3 hours in the dark. The AlphaScreen™ signal is measured using an EnVision spectrophotometer (Perkin-Elmer Inc.) with the recommended manufacturer's settings. cAMP concentrations are determined by reference to a calibration curve determined in the same experiment using standard cAMP concentrations. Concentration response curves for agonists are constructed and data is fitted to a four parameter logistic equation to determine both the pEC50 and Intrinsic Activity. Intrinsic Activity is expressed as a fraction relative to the maximum activity determined for formoterol in each experiment.

[2] = biological target: T2, human muscarinic acetylcholine M3 receptor (M3-ACh) (Homo sapiens, UniProt P20309); assay: Muscarinic 3 Receptor Binding Assay ([3H]NMS competition, SPA); settings: [3H]NMS 0.1 nM, CHO-K1 cell membranes, 16 hours at room temperature; read-out: M3 pIC50 (converted)
T2 construct: expressed in transfected cells; host or cells: CHO-K1 (Chinese Hamster Ovary) cell membranes
T2 sequence (P20309 whole entry): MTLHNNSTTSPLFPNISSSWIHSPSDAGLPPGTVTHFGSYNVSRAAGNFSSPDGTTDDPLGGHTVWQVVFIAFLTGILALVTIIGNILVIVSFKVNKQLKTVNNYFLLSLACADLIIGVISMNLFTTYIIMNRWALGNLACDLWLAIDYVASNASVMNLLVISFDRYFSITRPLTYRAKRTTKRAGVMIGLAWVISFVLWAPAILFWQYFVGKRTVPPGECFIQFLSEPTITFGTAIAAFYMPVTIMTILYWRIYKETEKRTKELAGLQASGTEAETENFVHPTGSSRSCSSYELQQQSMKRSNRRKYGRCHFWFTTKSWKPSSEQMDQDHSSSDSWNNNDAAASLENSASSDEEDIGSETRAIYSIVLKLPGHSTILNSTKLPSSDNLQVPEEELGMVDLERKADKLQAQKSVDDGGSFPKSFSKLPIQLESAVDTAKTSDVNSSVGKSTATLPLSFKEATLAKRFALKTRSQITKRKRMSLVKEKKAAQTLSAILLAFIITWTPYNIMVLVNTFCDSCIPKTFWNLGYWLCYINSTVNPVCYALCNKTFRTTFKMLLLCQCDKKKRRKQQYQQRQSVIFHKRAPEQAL
Description: Muscarinic 3 Receptor Binding Assay
The affinity (pIC50) of compounds binding to the M3 receptor is determined by competition binding of [^3H]N-methyl scopolamine (NMS) to CHO-K1 (Chinese Hamster Ovary) cell membranes expressing the human muscarinic acetylcholine M3 receptor (M3-ACh) in a scintillation proximity assay (SPA) format.
SPA beads are precoated with membranes and then incubated at 2 mg of beads per well with serial dilutions of compounds of the invention, [^3H]NMS at 0.1 nM, quarter Kd (experimentally determined dissociation constant) and assay buffer (20 mM HEPES pH 7.4 containing 5 mM MgCl2). The assay is conducted in a final volume of 200 μL, in the presence of 1% (v/v) dimethyl sulphoxide (DMSO). Total binding of [^3H]NMS is determined in the absence of competing compound and non-specific binding of [^3H]NMS is determined in the presence of 1 μM atropine. The plates are incubated for 16 hours at room temperature and then read on Wallac Microbeta™ using a normalised ^3H protocol. The pIC50, defined as the negative logarithm of the molar concentration of compound required for 50% reduction in specific [^3H]-NMS binding, is determined.

SMILES	EC50 [1]	β2 Intrinsic activity [1]	IC50 [2]
CC(C)c1nc(C(=O)N2CCOC3(CCN(CCCCCC(C)(C)CCCNC[C@H](O)c4ccc(O)c5[nH]c(=O)sc45)CC3)C2)cs1 [Example 285, (R)-4-Hydroxy-7-(1-hydroxy-2-(9-(4-(2-isopropylthiazole-4-carbonyl)-1-oxa-4,9-diazaspiro[5.5]undecan-9-yl)-4,4-dimethylnonylamino)ethyl)benzo[d]thiazol-2(3H)-one formate]	0.0158 µM	1	0.00398 µM
Cc1cc(C(=O)N2CCOC3(CCN(CCCCCCCCCNC[C@H](O)c4ccc(O)c5[nH]c(=O)sc45)CC3)C2)cs1 [Example 105, (R)-4-Hydroxy-7-(1-hydroxy-2-(9-(4-(5-methylthiophene-3-carbonyl)-1-oxa-4,9-diazaspiro[5.5]undecan-9-yl)nonylamino)ethyl)benzo[d]thiazol-2(3H)-one formate]	0.0158 µM	0.8	0.000126 µM
CC(C)c1nc(C(=O)N2CCOC3(CCN(Cc4cccc5c(CNC[C@H](O)c6ccc(O)c7[nH]c(=O)sc67)cccc45)CC3)C2)cs1 [Example 62, (R)-4-Hydroxy-7-(1-hydroxy-2-((5-((4-(2-isopropylthiazole-4-carbonyl)-1-oxa-4,9-diazaspiro[5.5]undecan-9-yl)methyl)naphthalen-1-yl)methylamino)ethyl)benzo[d]thiazol-2(3H)-one ditrifluoroacetate]	0.251 µM	0.9	0.251 µM
O=C(c1nc2ccccc2s1)N1CCOC2(CCN(CCCCCCCCCNC[C@H](O)c3ccc(O)c4[nH]c(=O)sc34)CC2)C1 [Example 107, (R)-7-(2-(9-(4-(Benzo[d]thiazole-2-carbonyl)-1-oxa-4,9-diazaspiro[5.5]undecan-9-yl)nonylamino)-1-hydroxyethyl)-4-hydroxybenzo[d]thiazol-2(3H)-one formate]	0.0398 µM	0.9	0.00631 µM
CC(C)c1nc(C(=O)N2CCOC3(CCN(Cc4cccc(C(C)(C)CNC[C@H](O)c5ccc(O)c6[nH]c(=O)ccc56)c4F)CC3)C2)cs1 [Example 92, (R)-5-(2-(2-(2-Fluoro-3-((4-(2-isopropylthiazole-4-carbonyl)-1-oxa-4,9-diazaspiro[5.5]undecan-9-yl)methyl)phenyl)-2-methylpropylamino)-1-hydroxyethyl)-8-hydroxyquinolin-2(1H)-one ditrifluoroacetate]	0.794 µM	0.9	0.126 µM
CCC(CC)c1nc(C(=O)N2CCOC3(CCN(Cc4cccc(CCNC[C@H](O)c5ccc(O)c6[nH]c(=O)sc56)c4)CC3)C2)cs1 [Example 265, (R)-4-Hydroxy-7-(1-hydroxy-2-(3-((4-(2-(pentan-3-yl)thiazole-4-carbonyl)-1-oxa-4,9-diazaspiro[5.5]undecan-9-yl)methyl)phenethylamino)ethyl)benzo[d]thiazol-2(3H)-one ditrifluoroacetate]	0.0126 µM	1	0.000794 µM
CC(C)c1nc(C(=O)N2CCOC3(CCN(CCCCCCCC(C)(C)CNC[C@H](O)c4ccc(O)c5[nH]c(=O)sc45)CC3)C2)cs1 [Example 103, (R)-4-Hydroxy-7-(1-hydroxy-2-(9-(4-(2-isopropylthiazole-4-carbonyl)-1-oxa-4,9-diazaspiro[5.5]undecan-9-yl)-2,2-dimethylnonylamino)ethyl)benzo[d]thiazol-2(3H)-one formate]	0.251 µM	1	0.001 µM
CC(C)(C)c1nc(C(=O)N2CCOC3(CCN(Cc4cc(CCNC[C@H](O)c5ccc(O)c6[nH]c(=O)sc56)cs4)CC3)C2)cs1 [Example 43, (R)-7-(2-(2-(5-((4-(2-tert-Butylthiazole-4-carbonyl)-1-oxa-4,9-diazaspiro[5.5]undecan-9-yl)methyl)thiophen-3-yl)ethylamino)-1-hydroxyethyl)-4-hydroxybenzo[d]thiazol-2(3H)-one ditrifluoroacetate]	0.00501 µM	0.8	0.0398 µM
